Columns and labels:
[1] = test system: pigweed, palmer; assay: Test C postemergence; type: in vivo, Amaranthus palmeri; conditions: postemergence, 10 days
Procedure, shortened: (§1)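 Visual injury ratings on a 0–100 scale (100 = complete control) were made against untreated controls 10 days after treatment in the greenhouse. Compounds, formulated with surfactant in non-phytotoxic solvent, were sprayed on soil preemergence or onto one- to two-leaf plants 2–10 cm tall postemergence.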

[2] = test system: goosegrass; assay: Test C preemergence; type: in vivo, Eleusine indica; conditions: preemergence, 0 to 100 scale (0 no effect, 100 complete control)
Description: (§2) Seeds of plant species selected from barnyardgrass (Echinochloa crusgalli), blackgrass (Alopecurus myosuroides), corn (Zea mays), foxtail, giant (giant foxtail, Setaria faberi), green foxtail (Setaria viridis), goosegrass (Eleusine indica), kochia (Bassia scoparia), oat, wild (wild oat, Avena fatua), pigweed, palmer (palmer amaranth, palmer pigweed, Amaranthus palmeri), Pigweed, Redroot (redroot pigweed, Amaranthus retroflexus), ragweed (common ragweed, Ambrosia artemisiifolia), ryegrass, Italian ([…] ryegrass, Lolium multiflorum), soybean (Glycine max), and wheat (Triticum aestivum) were planted into a blend of loam soil and sand and treated preemergence with a directed soil spray using test chemicals formulated in a non-phytotoxic solvent mixture which included a surfactant. At the same time, plants selected from these crops and weed species and also galium (catchweed bedstraw, Galium aparine) and horseweed (Erigeron canadensis) were planted in pots containing the same blend of loam soil and sand and treated with postemergence applications of test chemicals formulated in the same manner. Plants ranged in height from 2 to 10 cm and were in the one- to two-leaf stage for the postemergence treatment. Treated plants and untreated controls were maintained in a greenhouse for 10 days, after which time all treated plants were compared to untreated controls and visually evaluated for injury. Plant response ratings, summarized in Table C, are based on a 0 to 100 scale where 0 is no effect and 100 is complete control. A dash (-) response means no test result.

[3] = test system: ryegrass, Italian; assay: Test C preemergence; type: in vivo, Lolium multiflorum; conditions: preemergence, 0 to 100 scale (0 no effect, 100 complete control)
Procedure, shortened: as §1

[4] = test system: rice; assay: Test D flooded paddy test; type: in vivo, Oryza sativa; conditions: 250 g ai/ha, applied to paddy water, visual rating after 13 to 14 days, scale 0 to 100 (0 no effect, 100 complete control)
Procedure, shortened: (§3)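 Post-flood water application at the 2-leaf stage; 3 cm flood depth kept constant; visual control rating 0–100 after 13–14 days greenhouse growth.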

[5] = test system: oat, wild; assay: Test C postemergence; type: in vivo, Avena fatua; conditions: postemergence, 10 days
Procedure, shortened: as §1

[6] = test system: ryegrass, Italian; assay: Test C postemergence; type: in vivo, Lolium multiflorum; conditions: postemergence, 10 days
Procedure, shortened: as §1

[7] = test system: ducksalad; assay: Test D flooded paddy test; type: in vivo, Heteranthera limosa; conditions: 250 g ai/ha, applied to paddy water, visual rating after 13 to 14 days, scale 0 to 100 (0 no effect, 100 complete control)
Procedure, shortened: as §3

[8] = test system: oat, wild; assay: Test C preemergence; type: in vivo, Avena fatua; conditions: preemergence, 0 to 100 scale (0 no effect, 100 complete control)
Procedure, shortened: as §1

[9] = test system: corn; assay: Test C preemergence; type: in vivo, Zea mays; conditions: preemergence, 0 to 100 scale (0 no effect, 100 complete control)
Procedure, shortened: as §1

[10] = test system: blackgrass; assay: Test C preemergence; type: in vivo, Alopecurus myosuroides; conditions: preemergence, 0 to 100 scale (0 no effect, 100 complete control)
Procedure, shortened: as §1

[11] = test system: sedge, umbrella; assay: Test D flooded paddy test; type: in vivo, Cyperus difformis; conditions: 250 g ai/ha, applied to paddy water, visual rating after 13 to 14 days, scale 0 to 100 (0 no effect, 100 complete control)
Procedure, shortened: as §3

[12] = test system: foxtail, giant; assay: Test C preemergence; type: in vivo, Setaria faberi; conditions: preemergence, 0 to 100 scale (0 no effect, 100 complete control)
Procedure, shortened: as §1

[13] = test system: blackgrass; assay: Test C postemergence; type: in vivo, Alopecurus myosuroides; conditions: postemergence, 10 days
Procedure, shortened: as §1

[14] = test system: goosegrass; assay: Test C postemergence; type: in vivo, Eleusine indica; conditions: postemergence, 10 days
Description: as §2

[15] = test system: barnyardgrass; assay: Test D flooded paddy test; type: in vivo, Echinochloa crus-galli; conditions: 250 g ai/ha, applied to paddy water, visual rating after 13 to 14 days, scale 0 to 100 (0 no effect, 100 complete control)
Procedure, shortened: as §3

[16] = test system: wheat; assay: Test C postemergence; type: in vivo, Triticum aestivum; conditions: postemergence, 10 days
Procedure, shortened: as §1

[17] = test system: ragweed; assay: Test C postemergence; type: in vivo, Ambrosia artemisiifolia; conditions: postemergence, 10 days
Procedure, shortened: as §1

[18] = test system: kochia; assay: Test C postemergence; type: in vivo, Bassia scoparia; conditions: postemergence, 10 days
Procedure, shortened: as §1

[19] = test system: foxtail, giant; assay: Test C postemergence; type: in vivo, Setaria faberi; conditions: postemergence, 10 days
Procedure, shortened: as §1

[20] = test system: soybean; assay: Test C postemergence; type: in vivo, Glycine max; conditions: postemergence, 10 days
Procedure, shortened: as §1

[21] = test system: wheat; assay: Test C preemergence; type: in vivo, Triticum aestivum; conditions: preemergence, 0 to 100 scale (0 no effect, 100 complete control)
Procedure, shortened: as §1

[22] = test system: pigweed, palmer; assay: Test C preemergence; type: in vivo, Amaranthus palmeri; conditions: preemergence, 0 to 100 scale (0 no effect, 100 complete control)
Procedure, shortened: as §1

[23] = test system: corn; assay: Test C postemergence; type: in vivo, Zea mays; conditions: postemergence, 10 days
Procedure, shortened: as §1

[24] = test system: ragweed; assay: Test C preemergence; type: in vivo, Ambrosia artemisiifolia; conditions: preemergence, 0 to 100 scale (0 no effect, 100 complete control)
Procedure, shortened: as §1

[25] = test system: soybean; assay: Test C preemergence; type: in vivo, Glycine max; conditions: preemergence, 0 to 100 scale (0 no effect, 100 complete control)
Procedure, shortened: as §1

[26] = test system: kochia; assay: Test C preemergence; type: in vivo, Bassia scoparia; conditions: preemergence, 0 to 100 scale (0 no effect, 100 complete control)
Procedure, shortened: as §1

[27] = test system: galium; assay: Test C postemergence; type: in vivo, Galium aparine; conditions: postemergence, 10 days
Procedure, shortened: as §1

[28] = test system: horseweed; assay: Test C postemergence; type: in vivo, Erigeron canadensis; conditions: postemergence, 10 days
Procedure, shortened: as §1

[29] = 125 g ai/ha, 0 to 100 scale, 0 no effect, 100 complete control
[30] = 500 g ai/ha, 0 to 100 scale (0 no effect, 100 complete control)

Cc1cccc2c1O[C@@H](C)CN2C(=O)c1cccc(-n2cnc(-c3ccccc3)n2)c1 [Compound 283]
50: Plant response rating, Ryegrass, Italian [6, 30] | Plant response rating, Ragweed [17, 30] | Kochia plant response rating ([26]; 500 g ai/ha) | Plant response rating, Galium [27, 29]
20: Plant response rating, Ryegrass, Italian [6, 29] | Oat, Wild plant response rating ([8]; Test C, 125 g ai/ha) | Plant response rating, Foxtail, Giant [19, 29] | Plant response rating, Corn [23, 29] | Plant response rating, Corn [23, 30] | Kochia plant response rating ([26]; Test C, 125 g ai/ha)
10: Plant response rating, Oat, Wild [5, 29] | Plant response rating, Oat, Wild [5, 30] | Oat, Wild plant response rating ([8]; 500 g ai/ha) | Plant response rating, Blackgrass [13, 29] | Plant response rating, Goosegrass [14, 29] | Plant response rating, Wheat [16, 29] | Plant response rating, Wheat [16, 30] | Plant response rating, Ragweed [17, 29] | Wheat plant response rating ([21]; 500 g ai/ha)
80: Plant response rating, Pigweed, Palmer [1, 30] | Goosegrass plant response rating ([2]; Test C, 125 g ai/ha) | Plant response rating, Kochia [18, 30] | Plant response rating, Galium [27, 30]
60: Plant response rating, Pigweed, Palmer [1, 29] | Foxtail, Giant plant response rating ([12]; Test C, 125 g ai/ha)
100: Goosegrass plant response rating ([2]; 500 g ai/ha) | Ryegrass, Italian plant response rating ([3]; 500 g ai/ha) | Pigweed, Palmer plant response rating ([22]; 500 g ai/ha)
70: Ryegrass, Italian plant response rating ([3]; Test C, 125 g ai/ha) | Plant response rating, Kochia [18, 29]
90: Foxtail, Giant plant response rating ([12]; 500 g ai/ha) | Plant response rating, Foxtail, Giant [19, 30] | Plant response rating, Soybean [20, 29] | Plant response rating, Soybean [20, 30]
0: Plant response rating, Rice (Flood) [4] | Plant response rating, Ducksalad (Flood) [7] | Corn plant response rating ([9]; 500 g ai/ha) | Corn plant response rating ([9]; Test C, 125 g ai/ha) | Plant response rating, Sedge, Umbrella (Flood) [11] | Plant response rating, Barnyardgrass (Flood) [15] | Wheat plant response rating ([21]; Test C, 125 g ai/ha) | Ragweed plant response rating ([24]; 500 g ai/ha) | Ragweed plant response rating ([24]; Test C, 125 g ai/ha) | Soybean plant response rating ([25]; Test C, 125 g ai/ha)
40: Blackgrass plant response rating ([10]; 500 g ai/ha) | Blackgrass plant response rating ([10]; Test C, 125 g ai/ha) | Plant response rating, Blackgrass [13, 30] | Plant response rating, Goosegrass [14, 30]
30: Pigweed, Palmer plant response rating ([22]; Test C, 125 g ai/ha) | Soybean plant response rating ([25]; 500 g ai/ha)

CC1Oc2ccccc2N(C(=O)c2cccc(-n3cncn3)c2)C1C (stereo not shown) [Compound 285]
0%: pest or weed control at 125 g/ha ([13]; Alopecurus myosuroides, post-emergence, 240 h, 125 g ai/ha, 0 to 100 scale (0 no effect, 100 complete control), read-out: Plant response rating, Blackgrass) | pest or weed control at 500 g/ha ([13]; Alopecurus myosuroides, post-emergence, 240 h, 500 g ai/ha, 0 to 100 scale (0 no effect, 100 complete control), read-out: Plant response rating, Blackgrass) | Corn plant response rating (crop injury, 0 = no effect, 100 = complete kill) at 125 g/ha ([23]; Zea mays, post-emergence, 240 h, 125 g ai/ha, 0 to 100 scale (0 no effect, 100 complete control)) | Corn plant response rating (crop injury, 0 = no effect, 100 = complete kill) at 500 g/ha ([23]; Zea mays, post-emergence, 240 h, 500 g ai/ha, 0 to 100 scale (0 no effect, 100 complete control))
20: Ryegrass, Italian plant response rating ([3]; Test C, 125 g ai/ha)
0: Plant response rating, Pigweed, Palmer [1, 29] | Plant response rating, Pigweed, Palmer [1, 30] | Goosegrass plant response rating ([2]; 500 g ai/ha) | Goosegrass plant response rating ([2]; Test C, 125 g ai/ha) | Plant response rating, Rice (Flood) [4] | Plant response rating, Horseweed [28, 29] | Plant response rating, Horseweed [28, 30] | Plant response rating, Oat, Wild [5, 29] | Plant response rating, Oat, Wild [5, 30] | Plant response rating, Ryegrass, Italian [6, 29] | Plant response rating, Ryegrass, Italian [6, 30] | Plant response rating, Ducksalad (Flood) [7] | Oat, Wild plant response rating ([8]; 500 g ai/ha) | Oat, Wild plant response rating ([8]; Test C, 125 g ai/ha) | Corn plant response rating ([9]; 500 g ai/ha) | Corn plant response rating ([9]; Test C, 125 g ai/ha) | Blackgrass plant response rating ([10]; 500 g ai/ha) | Blackgrass plant response rating ([10]; Test C, 125 g ai/ha) | Plant response rating, Sedge, Umbrella (Flood) [11] | Foxtail, Giant plant response rating ([12]; 500 g ai/ha) | Foxtail, Giant plant response rating ([12]; Test C, 125 g ai/ha) | Plant response rating, Goosegrass [14, 29] | Plant response rating, Goosegrass [14, 30] | Plant response rating, Barnyardgrass (Flood) [15] | Plant response rating, Wheat [16, 29] | Plant response rating, Wheat [16, 30] | Plant response rating, Ragweed [17, 29] | Plant response rating, Ragweed [17, 30] | Plant response rating, Kochia [18, 29] | Plant response rating, Kochia [18, 30] | Plant response rating, Foxtail, Giant [19, 29] | Plant response rating, Foxtail, Giant [19, 30] | Plant response rating, Soybean [20, 29] | Wheat plant response rating ([21]; 500 g ai/ha) | Wheat plant response rating ([21]; Test C, 125 g ai/ha) | Pigweed, Palmer plant response rating ([22]; 500 g ai/ha) | Pigweed, Palmer plant response rating ([22]; Test C, 125 g ai/ha) | Ragweed plant response rating ([24]; 500 g ai/ha) | Ragweed plant response rating ([24]; Test C, 125 g ai/ha) | Soybean plant response rating ([25]; 500 g ai/ha) | Soybean plant response rating ([25]; Test C, 125 g ai/ha) | Plant response rating, Galium [27, 29]
30: Ryegrass, Italian plant response rating ([3]; 500 g ai/ha) | Plant response rating, Galium [27, 30]
10: Plant response rating, Soybean [20, 30]

Source: patent US20260262643A1, “HERBICIDAL BENZOXAZINES” (FMC CORPORATION, priority 2022, published 2026)
